Test results as given in US5057523A, “Dipeptide quinolone derivatives” (Abbott Laboratories, priority 1989, dated 1991).
Converted amounts (≈) assume the structure as drawn. Counter-ions that a name gives are not always drawn.

Experiments:
[1] = test system: MICROCOCCUS LUTEUS ATCC 9341; assay: In vitro antibacterial activity, agar dilution MIC (BHIA); type: cell-based; settings: BHI agar
[2] = test system: ENTEROCOCCUS FAECIUM ATCC 8043; assay: as above; type: cell-based; settings: ENTEROCOCCUS FAECIUM ATCC 8043; BHI agar
[3] = test system: STREPTOCOCCUS BOVIS A5169; assay: as above; type: cell-based; settings: STREPTOCOCCUS BOVIS A5169; BHI agar
[4] = test system: STREPTOCOCCUS AGALACTIAE CMX 508; assay: as above; type: cell-based; settings: STREPTOCOCCUS AGALACTIAE CMX 508; BHI agar
[5] = test system: STREPTOCOCCUS PYOGENES EES61; assay: as above; type: cell-based; settings: STREPTOCOCCUS PYOGENES EES61; BHI agar
[6] = test system: STREPTOCOCCUS PYOGENES 2548 INDUC; assay: as above; type: cell-based; settings: BHI agar
ESCHERICHIA COLI JUHL = assay: as above; type: cell-based; settings: BHI agar
ESCHERICHIA COLI DC-2 = assay: as above; type: cell-based; settings: BHI agar
From the text: (§1) The MIC results are in μg/ml.

ESCHERICHIA COLI H560 = assay: as above; type: cell-based; settings: BHI agar
From the text: as §1

ESCHERICHIA COLI SS = assay: as above; type: cell-based; settings: BHI agar
From the text: as §1

ESCHERICHIA COLI KNK 437 = assay: as above; type: cell-based; settings: BHI agar
[7] = test system: PROVIDENCIA STUARTII CMX 640; assay: as above; type: cell-based; settings: BHI agar
[8] = test system: PSEUDOMONAS AERUGINOSA BMH10; assay: as above; type: cell-based; settings: BHI agar
[9] = test system: PSEUDOMONAS AERUGINOSA A5007; assay: as above; type: cell-based; settings: BHI agar
[10] = test system: PSEUDOMONAS AERUGINOSA K799/WT; assay: as above; type: cell-based; settings: BHI agar
PSEUDOMONAS CEPACIA 2961 = assay: as above; type: cell-based; settings: BHI agar
E. Coli Juhl [11] = assay: Acute mouse protection test; type: in vivo; settings: mice infected intraperitoneally with E. Coli JUHL, dosed at 1 and 5 hours post-infection
Stap. Aureus NCTC 10649 = assay: Acute mouse protection test; type: in vivo; settings: mice infected intraperitoneally with Stap. Aureus NCTC 10649, dosed at 1 and 5 hours post-infection
Strep pyogenes EES 61 = assay: Second in vitro test, MIC in Brain Heart Infusion Broth (BHIB)
E. Coli Juhl [12] = assay: as above
Stap. Aureus CMX 553 = assay: as above
Ps. Aeruginosa A5007 = assay: as above
P. Aeruginosa A5007 = assay: Acute mouse protection test; type: in vivo; settings: mice infected intraperitoneally with P. Aeruginosa A5007, dosed at 1 and 5 hours post-infection

MIC (Strep pyogenes EES 61)	MIC (E. Coli Juhl [12])	MIC (Stap. Aureus CMX 553)	MIC (Ps. Aeruginosa A5007)	SMILES	Oral (ED50) (E. Coli Juhl [11])	Oral (ED50) (Stap. Aureus NCTC 10649)	Oral (ED50) (P. Aeruginosa A5007)	also measured
				NC(Cc1ccccc1)C(=O)NC1CCN(c2nc3c(cc2F)c(=O)c(C(=O)O)cn3-c2ccc(F)cc2F)C1 (stereo not shown) [Example 5]	3.5 mg/kg/day	3.6 mg/kg/day		MIC [1]: 25 µg/mL (≈ 45.3 µM); MIC [2]: 3.1 µg/mL (≈ 5.62 µM); MIC [3]: 6.2 µg/mL (≈ 11.2 µM); MIC [4]: 3.1 µg/mL (≈ 5.62 µM); MIC [5]: 3.1 µg/mL (≈ 5.62 µM); MIC [6]: .78 µg/mL (≈ 1.41 µM); MIC (ESCHERICHIA COLI JUHL): 3.1 µg/mL (≈ 5.62 µM); MIC (ESCHERICHIA COLI DC-2): 50 µg/mL (≈ 90.7 µM); MIC (ESCHERICHIA COLI H560): 3.1 µg/mL (≈ 5.62 µM); MIC (ESCHERICHIA COLI SS): .1 µg/mL (≈ 0.181 µM); MIC (ESCHERICHIA COLI KNK 437): 100 µg/mL (≈ 181 µM); MIC [7]: > 100 µg/mL; MIC [8]: 25 µg/mL (≈ 45.3 µM); MIC [9]: 50 µg/mL (≈ 90.7 µM); MIC [10]: 25 µg/mL (≈ 45.3 µM); MIC (PSEUDOMONAS CEPACIA 2961): > 100 µg/mL
0.78 µg/mL (≈ 1.69 µM)	0.78 µg/mL (≈ 1.69 µM)			NCC(=O)NC1CCN(c2nc3c(cc2F)c(=O)c(C(=O)O)cn3-c2ccc(F)cc2F)C1 (stereo not shown) [Example 7]	5.0 mg/kg/day	2.4 mg/kg/day		
	16 µg/mL (≈ 25.7 µM)	16.0 µg/mL (≈ 25.7 µM)		CC(N)C(=O)NC(Cc1ccccc1)C(=O)NC1CCN(c2nc3c(cc2F)c(=O)c(C(=O)O)cn3-c2ccc(F)cc2F)C1 (stereo not shown) [Example 11]		2.0 mg/kg/day		
			50 µg/mL (≈ 88.1 µM)	NC(Cc1ccc(O)cc1)C(=O)NC1CCN(c2nc3c(cc2F)c(=O)c(C(=O)O)cn3-c2ccc(F)cc2F)C1 (stereo not shown) [Example 13]		1.7 mg/kg/day		
	0.5 µg/mL (≈ 1.05 µM)	2.0 µg/mL (≈ 4.21 µM)	16 µg/mL (≈ 33.7 µM)	CC(N)C(=O)NC1CCN(c2nc3c(cc2F)c(=O)c(C(=O)O)cn3-c2ccc(F)cc2F)C1 (stereo not shown) [Example 17]	2.0 mg/kg/day	1.7 mg/kg/day		
6.2 µg/mL (≈ 12 µM)			25 µg/mL (≈ 48.3 µM)	CC(C)CC(N)C(=O)NC1CCN(c2nc3c(cc2F)c(=O)c(C(=O)O)cn3-c2ccc(F)cc2F)C1 (stereo not shown) [Example 21]		2.4 mg/kg/day		
			5.0 µg/mL (≈ 9.34 µM)	CSCCC(N)C(=O)NC1CCN(c2nc3c(cc2F)c(=O)c(C(=O)O)cn3-c2ccc(F)cc2F)C1 (stereo not shown) [Example 23]		1.5 mg/kg/day		
	0.78 µg/mL (≈ 1.55 µM)	0.39 µg/mL (≈ 0.776 µM)	6.2 µg/mL (≈ 12.3 µM)	CCCC(N)C(=O)NC1CCN(c2cc3c(cc2F)c(=O)c(C(=O)O)cn3-c2ccc(F)cc2F)C1 (stereo not shown) [Example 26b]				
6.2 µg/mL (≈ 14.8 µM)				CCC[C@H](N)C(=O)NC1CCN(c2nc3c(cc2F)c(=O)c(C(=O)O)cn3CC)C1 (stereo partly shown) [Example 26ff]				
	0.78 µg/mL (≈ 1.61 µM)	0.78 µg/mL (≈ 1.61 µM)	6.2 µg/mL (≈ 12.8 µM)	CCCC(N)C(=O)NC1CCN(c2cc3c(cc2F)c(=O)c(C(=O)O)cn3-c2ccc(F)cc2)C1 (stereo not shown) [Example 26h]		4.0 mg/kg/day		
	0.39 µg/mL (≈ 0.803 µM)		6.2 µg/mL (≈ 12.8 µM)	CCCC(N)C(=O)NC1CCN(c2nc3c(cc2F)c(=O)c(C(=O)O)cn3-c2ccc(F)cc2)C1 (stereo not shown) [Example 26i]		5.3 mg/kg/day		
32 µg/mL	16 µg/mL	16 µg/mL	64 µg/mL	Cl.NCC(=O)N[C@@H](Cc1ccccc1)C(=O)NC1CCN(c2cc3c(cc2F)c(=O)c(C(=O)O)cn3-c2ccc(F)cc2F)C1 (stereo partly drawn) [Example 26jj, 1-(2,4-Difluorophenyl)-6-Fluoro-7-(3-Gly-L-Phe -Amino 1-Pyrrolidinyl)-1,4-Dihydro-4-Oxo-Quinoline-3-Carboxylic Acid Hydrochloride]				
				CCCC(N)C(=O)NC1CCN(c2cc3c(cc2F)c(=O)c(C(=O)O)cn3C2CC2)C1 (stereo not shown) [Example 26l]	9.4 mg/kg/day			
3.1 µg/mL (≈ 6.96 µM)	0.2 µg/mL (≈ 0.449 µM)	0.39 µg/mL (≈ 0.875 µM)		CC(C)CC(N)C(=O)NC1CCN(c2nc3c(cc2F)c(=O)c(C(=O)O)cn3C2CC2)C1 (stereo not shown) [Example 26o]	1.2 mg/kg/day	4.0 mg/kg/day	6.2 mg/kg/day	
3.1 µg/mL (≈ 7.18 µM)	0.39 µg/mL (≈ 0.904 µM)	0.39 µg/mL (≈ 0.904 µM)		CCCC(N)C(=O)NC1CCN(c2nc3c(cc2F)c(=O)c(C(=O)O)cn3C2CC2)C1 (stereo not shown) [Example 26p]		4.5 mg/kg/day	9.1 mg/kg/day	
				CCCC(N)C(=O)NC1CCN(c2c(F)cc3c(=O)c(C(=O)O)cn(C4CC4)c3c2F)C1 (stereo not shown) [Example 26r]	2.3 mg/kg/day	3.0 mg/kg/day	7.3 mg/kg/day	
				CC(N)C(=O)NC1CCN(c2c(F)cc3c(=O)c(C(=O)O)cn(C4CC4)c3c2F)C1 (stereo not shown) [Example 26s]	1.8 mg/kg/day	4.8 mg/kg/day	5.0 mg/kg/day	
				O=C(O)c1cn(-c2ccc(F)cc2F)c2nc(N3CCC(NC(=O)C4CCCN4)C3)c(F)cc2c1=O (stereo not shown) [Example 28]		3.2 mg/kg/day		
100 µg/mL (≈ 162 µM)	25 µg/mL (≈ 40.5 µM)	25 µg/mL (≈ 40.5 µM)	> 100 µg/mL	CCC[C@H](NC(=O)CNC(=O)CN)C(=O)NC1CCN(c2nc3c(cc2F)c(=O)c(C(=O)O)cn3-c2ccc(F)cc2F)C1 (stereo partly shown) [Example 30]		2.2 mg/kg/day	3.3 mg/kg/day	
25 µg/mL	12.5 µg/mL	25 µg/mL	> 100 µg/mL	CS(=O)(=O)CC[C@H](N)C(=O)NC1CCN(c2nc3c(cc2F)c(=O)c(C(=O)O)cn3-c2ccc(F)cc2F)C1.Cl (stereo partly drawn) [Example 31c, 7-[3 L-Methioninesulfone Amino-1-Pyrrolidinyl]-1-(2,4-Difluorophenyl)-6-Fluoro-1,4-Dihydro-4-Oxo 1,8-Naphthyridine 3-Carboxylic Acid Hydrochloride]	1.8 mg/kg/day	1.8 mg/kg/day	7.8 mg/kg/day	
				NC(=O)C[C@H](N)C(=O)NC1CCN(c2nc3c(cc2F)c(=O)c(C(=O)O)cn3-c2ccc(F)cc2F)C1 (stereo partly drawn) [Example 41, 7-(3-L-Asparagine-amino-1-pyrrolidinyl)-1-(2,4-6-fluoro-1,4-dihydro-4-oxo-1,8-difluorophenyl)-3-carboxylic acid hydrochloride]		2.9 mg/kg/day		
32 µg/mL	64 µg/mL	16 µg/mL	> 64 µg/mL	Cl.Cl.N[C@@H](Cc1c[nH]cn1)C(=O)NC1CCN(c2nc3c(cc2F)c(=O)c(C(=O)O)cn3-c2ccc(F)cc2F)C1 (stereo partly drawn) [Example 44c, 7-[3-L-Histidine-Amino-1-Pyrrolidinyl)-1-(2,4-Difluorophenyl)-6-Fluoro-1,4-Dihydro-4-oxo-1,8-Naphthyridine-3-Carboxylic Acid Dihydrochloride]		4.0 mg/kg/day	51.3 mg/kg/day	
				Cl.N[C@@H](CC(=O)O)C(=O)NC1CCN(c2nc3c(cc2F)c(=O)c(C(=O)O)cn3-c2ccc(F)cc2F)C1 (stereo partly drawn) [Example 45, 7-(3-L-Asp-amino-1-pyrrolidinyl)-1-(2,4-difluorophenyl)-6-fluoro-1,4-dihyd ro-4-oxo-1,8-naphthyridine-3-carboxylic acid hydrochloride]		1.5 mg/kg/day	13.0 mg/kg/day	
100 µg/mL		100 µg/mL	> 100 µg/mL	Cl.Cl.NCCCC[C@H](N)C(=O)NC1CCN(c2nc3c(cc2F)c(=O)c(C(=O)O)cn3-c2ccc(F)cc2F)C1 (stereo partly shown) [Example 46, 7-(3-Lys-amino-1-pyrrolidinyl)-1-(2,4-difluorophenyl)-6-fluoro-1,4-dihydro-4-oxo-1,8-naphthyridine-3-carboxylic acid dihydrochloride]		3.4 mg/kg/day		
